Experimental data: PubChem BioAssay AID2305 (GlaxoSmithKline (GSK), 2010)

These compounds were tested on P. falciparum 3D7 growth, pLDH absorbance (assay: P. falciparum 3D7 growth inhibition, dose response, strain 3D7 (AID 2305)).
Work on `CC(C)CCn1c(Sc2ccc([N+](=O)[O-])cc2C(F)(F)F)nnc1-c1ccccc1Cl` yielded an IC50 of 920 nM.
Compound `Cc1cc(CNCCCCCCNCc2ccc(-c3ccccc3)cc2)ccc1O` has an IC50 of 900 nM.
In the case of `CC(C)C(NC(=O)Cc1cccc2ccccc12)C(=O)Nc1cccc(C#N)c1` (configuration not stated), the IC50 is reported as 660 nM.
In the case of `Cc1cccc2[nH]c(-c3ccc(-c4ccc(CN5CCN(CC6CCCN(C)C6)CC5)cc4)s3)nc12` (configuration not stated), the IC50 is reported as 140 nM.
In the case of `N#Cc1ccc(-c2cnc3ccc(NCCc4cccnc4)nn23)cc1`, the IC50 is reported as 260 nM.
`OC(CNc1ccnc(Nc2cccc(OCCCN3CCOCC3)c2)n1)c1ccccc1` (configuration not stated) showed an IC50 of 920 nM.
Work on `COc1ccc(OC)c(NC(=O)c2c(-c3c(F)cccc3Cl)noc2C)c1` yielded an IC50 of 700 nM.
Compound `OC1(Cc2ccccc2)CCN(Cc2cccc(-c3c[nH]c4nc(NC5CCCC5)ncc34)c2)CC1` has an IC50 of 930 nM.
With `O=C(NCc1cccc(C(F)(F)F)c1)C(c1cc2ccccc2o1)N1CCN(C(c2ccccc2)c2ccccc2)CC1` (configuration not stated) the IC50 was 500 nM.
`CSc1nnc2n(Cc3ccccc3)c(=O)c3c(n12)-c1ccccc1CC31CCCCC1` showed an IC50 of 970 nM.
Compound `CC[C@H](C)[C@H](NC(=O)[C@H](CC1CCCCC1)[C@H](CC)N(O)C=O)C(=O)Nc1ccccn1` has an IC50 of 180 nM.
In the case of `CCCCCCCCNCC(O)c1ccc(Cl)c(Cl)c1` (configuration not stated), the IC50 is reported as 820 nM.
`O=C(COc1ccc(C(=O)c2ccccc2)cc1)Nc1nccs1` gave an IC50 of 890 nM.
In the case of `COCCN(C)c1ccc(C(=O)Nc2ccccc2)cc1NS(=O)(=O)Cc1ccccc1`, the IC50 is reported as 570 nM.
`O=C(C1CCCCC1)N1CCOC(CCN2CCC(c3ccccc3)CC2)(c2ccc(Cl)c(Cl)c2)C1` (configuration not stated) showed an IC50 of 930 nM.
For `CC(C)CNCc1cccc(-c2ccc(CN(C(=O)NC3CCCCC3)C3CCN(Cc4ccccc4)CC3)cc2)c1`, the IC50 was 760 nM.
Compound `Oc1ccc2ccccc2c1C=NNc1nc(Nc2ccccc2)nc(N2CCOCC2)n1` has an IC50 of 890 nM.
`O=C(Cn1c(=O)oc2ccccc21)N1CCC(n2c(=O)n(CCCN3CCOCC3)c3ccccc32)CC1` gave an IC50 of 770 nM.
In the case of `c1ccc(CN2CCN(c3cc(-c4cncc(-c5ccccc5)c4)nc(-c4ccccc4)n3)CC2)cc1`, the IC50 is reported as 1040 nM.
Compound `CC(C)OCCCNC(=O)c1nc(-c2cccc(C(F)(F)F)c2)sc1C(C)C` has an IC50 of 1160 nM.
`COc1cc2nc(N(C)C)nc(Nc3ccc4c(cnn4Cc4ccccc4)c3)c2cc1OC` was tested, and the IC50 was 40 nM.
In the case of `O=C(C=Cc1ccc(Cl)c(Cl)c1)NCCCCCN1CCC(CCCNS(=O)(=O)c2ccc(Br)cc2)CC1`, the IC50 is reported as 1130 nM.
With `CCC(C)NC(=O)Nc1ccc(-c2cccc(-c3nc4ccc(C(F)(F)F)cc4[nH]3)c2)cc1` (configuration not stated) the IC50 was 620 nM.
In the case of `O=C(Nc1ccc(CC(=O)N2CCc3cc(Cl)c(N4CCN(C/C=C/c5ccccc5)CC4)cc32)cc1)Nc1cccc([N+](=O)[O-])c1`, the IC50 is reported as 760 nM.
Compound `CS(=O)(=O)c1ccc(CNCc2cccc(-c3cccc(-c4nc5ccc(C(F)(F)F)cc5[nH]4)c3)c2)cc1` has an IC50 of 180 nM.
`Cc1ccc(NC(=O)c2ccc3nccnc3c2)cc1OC1CCN(Cc2ccc(F)cc2)CC1` was tested, and the IC50 was 1010 nM.
Work on `Cc1ccccc1C1CCN(c2ccc(NC(=O)c3ccc(Cl)nc3)cc2)CC1` yielded an IC50 of 1030 nM.
`CCC1(CC)C(=O)N=C(N2CCCCC2)N(C)C1=O` gave an IC50 of 300 nM.
Work on `CC(=O)N(Cc1ccc(-c2ccc(CNCCc3ccccc3)cc2)cc1)C1CCN(Cc2ccccc2)CC1` yielded an IC50 of 940 nM.
`Cc1cc(N[C@@H](Cc2ccccc2)C(=O)NCc2cccc(F)c2)nc(NCC2CCCCC2)n1` gave an IC50 of 850 nM.
Compound `O=C1OC2(CN1CC1CCN(Cc3ccc(-n4ccnc4)cc3)C1)c1ccccc1-c1ccccc12` (configuration not stated) has an IC50 of 980 nM.
`O=C(c1ccc(-c2ccc(-c3nc4ccc(C(F)(F)F)cc4[nH]3)s2)cc1)N1CCCCC1CN1CCC(O)C1` (configuration not stated) gave an IC50 of 560 nM.
`Nc1nc(N)c2c(ccc3c2ccn3Cc2ccccn2)n1` showed an IC50 of 10 nM.
With `Cc1nc(-c2nc(N3CCOCC3)ncc2-c2ccsc2)sc1C` the IC50 was 320 nM.
For `O=C(Nc1ccc(Cl)cc1)c1cc(Cl)ccc1NC(=O)C1CCc2ccccc2O1` (configuration not stated), the IC50 was 1790 nM.
`Cc1cc(N2CCC(NS(=O)(=O)c3cccc4cccnc34)CC2)nc(Nc2cccc(C#N)c2)n1` was tested, and the IC50 was 750 nM.
`Cc1nc(-c2cccc(Nc3nccc(NCC(O)c4ccccc4C(F)(F)F)n3)c2)cs1` (configuration not stated) gave an IC50 of 830 nM.
For `CNC(=O)C1Cc2c([nH]c3cc(Br)ccc23)C2(CCN(CCc3ccccc3)CC2)N1` (configuration not stated), the IC50 was 720 nM.
`COc1ccc(N2CCN(CCCCNC(=O)c3ccc(NC(=O)c4ccc(C(F)(F)F)cc4)cc3)CC2)c(OC)c1` was tested, and the IC50 was 590 nM.
Compound `Cc1cc(N[C@@H](CC(C)C)C(=O)NCCCOC(C)C)nc(NCCc2ccc(F)cc2)n1` has an IC50 of 1250 nM.
In the case of `CCOC(=O)c1cn(CC)c2cc(N3CCCCC3)c(F)cc2c1=O`, the IC50 is reported as 130 nM.
`O=c1cc(NCCCNCc2cc(Br)cs2)[nH]c2ccccc12` was tested, and the IC50 was 1060 nM.
Work on `CN(C)Cc1ccc(-c2cccc(Nc3nccc(NCC(O)c4ccccc4)n3)c2)cc1` (configuration not stated) yielded an IC50 of 370 nM.
Compound `CC1(C)C[C@@H]2C[C@@](C)(CN2C(=O)c2cc(C(C)(C)C)nn2Cc2ccccc2)C1` has an IC50 of 1090 nM.
For `COc1ccc(C2CC(c3cccs3)=NN2C(=O)c2ccco2)cc1OC` (configuration not stated), the IC50 was 170 nM.
For `O=C(Nc1ccc(OC2CCN(Cc3ccc(F)cc3)CC2)cc1)c1cccs1`, the IC50 was 970 nM.
`O=C(c1ccc(F)c2ccccc12)N1CCc2cc3nccc(N4CCN5CCC[C@H]5C4)c3cc21` was tested, and the IC50 was 1000 nM.
`CC(C)(C)c1ccc(C(=O)NC2CCC(CCN3CCc4ccc(S(C)(=O)=O)cc4CC3)CC2)cc1C(F)(F)F` (configuration not stated) gave an IC50 of 1220 nM.
`CN1CCN(CCCNc2ncc3c(-c4ccc(NC(=O)Nc5cc(C(F)(F)F)ccc5F)c(F)c4)nn(C)c3n2)CC1` was tested, and the IC50 was 860 nM.
`OC1CCC(Nc2ccc3ncc(-c4ccc5ccccc5c4)n3n2)CC1` (configuration not stated) gave an IC50 of 980 nM.
`CCc1ccc(C(=O)NC(=O)c2ccccc2O)cc1` gave an IC50 of 610 nM.
Work on `CC(C)C(=O)ONC1=NC(C)(C)N(OCCCOc2cc(Cl)c(Cl)cc2Cl)C(NOC(=O)C(C)C)=N1` yielded an IC50 of 30 nM.
In the case of `CNC(=O)c1cnc(Nc2ccc(OCC(O)CN(C)C)cc2)nc1Nc1cccc([N+](=O)[O-])c1` (configuration not stated), the IC50 is reported as 620 nM.
In the case of `COc1ccc(CNCc2ccc(-c3ccc(-c4nc5c(C)cccc5[nH]4)cc3)cc2)cc1`, the IC50 is reported as 340 nM.
In the case of `NC(=O)c1cccc(Nc2nccc(Nc3ccc(Oc4cccc5ccccc45)cc3)n2)c1`, the IC50 is reported as 1150 nM.
With `COc1ccc2nccc([C@@H](O)CN3CCC(NCc4ccc5scnc5c4)CC3)c2c1` the IC50 was 400 nM.
For `COc1cc2nc(NC3CCN(Cc4ccccc4)CC3)nc(N)c2cc1OC`, the IC50 was 170 nM.
Work on `Cc1cccc(CNc2ncc(C)c(NCCC(=O)Nc3ccccc3)n2)c1` yielded an IC50 of 1150 nM.
`O=C(Nc1cc(F)cc(F)c1)N[C@H]1CCN(CCCCCNC(=O)[C@@H]2C[C@H]2c2ccc(Cl)c(Cl)c2)C1` was tested, and the IC50 was 1080 nM.
`O=C1CSc2ccc(CNC3CCN(CCc4c(Cl)cnc5ccc(Cl)cc45)CC3)nc2N1` was tested, and the IC50 was 230 nM.
With `Cc1cccc2[nH]c(-c3cccc(-c4cccc(CNCc5cccc(N)c5)c4)c3)nc12` the IC50 was 540 nM.
`CCc1ccc(NC(=O)c2cccc(CN3CCCN(Cc4ccc(OC)cc4)CC3)c2)cc1` showed an IC50 of 920 nM.
With `c1ccc2c(NCCCCCCCCNc3ccnc4ccccc34)ccnc2c1` the IC50 was 160 nM.
In the case of `O=C(NC1CCC(CN2CCC(c3c[nH]c4ccccc34)CC2)CC1)c1cc2ccccc2s1` (configuration not stated), the IC50 is reported as 730 nM.
`O=C(Nc1ccc(Cl)cc1)Nc1cccc(-c2cccc(-c3nc4ccccc4[nH]3)c2)c1` showed an IC50 of 130 nM.
With `O=C(Nc1ccc(Cn2ncc(N3CCCNCC3)c(Cl)c2=O)cc1)Nc1cccc(C(F)(F)F)c1` the IC50 was 640 nM.
With `COc1ccc2nc(NC3=NC4(c5ccccc5)N=C(Nc5nc6ccc(OC)cc6[nH]5)NC4(c4ccccc4)N3)[nH]c2c1` (configuration not stated) the IC50 was 200 nM.
In the case of `COc1cc(Cc2cnc(N)nc2N)c2c(c1OC)OC(C)(C)C=C2`, the IC50 is reported as 1190 nM.
`Cc1cc(N(C)CCN(C)C)nc(Nc2ccc(Cl)cc2)n1` showed an IC50 of 970 nM.
Compound `CCOC(=O)c1c(C)n(-c2ccccc2)c2ccc(OC(=O)COc3ccc(Cl)cc3Cl)cc12` has an IC50 of 430 nM.
`CC1CCCN(S(=O)(=O)c2ccc(NC(=O)c3cc(-c4ccccc4O)n[nH]3)cc2)C1` (configuration not stated) gave an IC50 of 760 nM.
`COc1ccc(CN2CCCC(Nc3ccc(F)c(F)c3)C2)c(O)c1` (configuration not stated) gave an IC50 of 1090 nM.
Work on `N=c1n(Cc2ccccc2)c2ccccc2n1CC(O)c1ccc(Cl)c(Cl)c1` (configuration not stated) yielded an IC50 of 830 nM.
`C=CCn1cc(C2CCN(CCCCNC(=O)c3sc(-c4ccc(C(F)(F)F)cc4)nc3CO)CC2)c2cc(OC)ccc21` showed an IC50 of 1040 nM.
Compound `O=C(Nc1ccc(-c2cccc(-c3nc4ccc(C(F)(F)F)cc4[nH]3)c2)cc1)Nc1ccc(F)c(F)c1F` has an IC50 of 710 nM.
`O=C(Nc1cccc(C(F)(F)F)c1)c1ccc(S(=O)(=O)NCC2CCN(CC3CCCCC3)CC2)cc1` showed an IC50 of 320 nM.
With `O=C(Cn1cc(C=C2SC(=NC3CCCC3)N(C3CCCC3)C2=O)c2ccccc21)N1CCCC1` the IC50 was 300 nM.
In the case of `CCc1ccc(C2CCN(CCCCNC(=O)c3ccc(NC(=O)c4ccc(Cl)cc4)cc3)CC2)cc1`, the IC50 is reported as 650 nM.
In the case of `COc1ccc(-c2ccc(NC(=O)c3ccc(C#N)cc3)cc2)cc1CN1CCCN(C)CC1`, the IC50 is reported as 150 nM.
`CCOCCCn1c(=N)c(C(=O)NC(C)c2ccccc2)cc2c(=O)n3cccc(C)c3nc21` (configuration not stated) was tested, and the IC50 was 1200 nM.
Compound `NC(=NCCc1ccc(Cl)c(Cl)c1)c1ccc2ccccc2c1` has an IC50 of 510 nM.
For `Cc1cccc(CN2CCCN(Cc3ccc(C(=O)Nc4ccc(C(C)(C)C)cc4)cc3)CC2)c1`, the IC50 was 730 nM.
In the case of `O=C(NCc1ccc(Cl)cc1)c1ccc(CN2CCCN(CC3CCCCC3)CC2)cc1`, the IC50 is reported as 1700 nM.
`CS(=O)(=O)Nc1ccc2c(C3CCN(CC4CCN(C(=O)/C=C/c5ccc(Cl)c(Cl)c5)CC4)CC3)c[nH]c2c1` gave an IC50 of 760 nM.
`COc1cc(C(=O)Nc2cccc(-c3cn4ccc(C)cc4n3)c2)cc(OC)c1OC` gave an IC50 of 760 nM.
`Cc1ccccc1N1CCN(c2ccc(C(=O)NC3CC3)cn2)CC1` was tested, and the IC50 was 460 nM.
Work on `CCN1CCN(c2cc(C)c3cc(NC(=O)c4ccc(Br)o4)ccc3n2)CC1` yielded an IC50 of 750 nM.
With `CCN(CC)S(=O)(=O)c1cc(-c2ccc(=O)n(CC(=O)c3ccc(C)cc3)n2)ccc1C` the IC50 was 890 nM.
`O=C(/C=C/c1ccc(Cl)c(Cl)c1)NCCCCCN1CCCC(C(=O)Nc2ccc(Cl)cc2)C1` (configuration not stated) gave an IC50 of 850 nM.
In the case of `Cc1ccc2nc(N(CCCn3ccnc3)C(=O)C=Cc3cccs3)sc2c1`, the IC50 is reported as 1390 nM.
`CCCCCC(C)C(C)c1cc(O)c2c(c1)OC(C)(C)c1cnccc1-2` (configuration not stated) showed an IC50 of 770 nM.
Compound `COc1ccc2c(NN=Cc3c(OC)ccc4ccccc34)cc(C)nc2c1` has an IC50 of 780 nM.
For `COc1cccc(Nc2nc(N)c3ccccc3n2)c1`, the IC50 was 930 nM.
With `CCNc1cc(C(=O)N[C@@H](Cc2ccc(F)c(F)c2)[C@H](O)CNCc2cccc(OC)c2)cc(N2CCCCS2(=O)=O)c1` the IC50 was 750 nM.
In the case of `CC(O)C1CCCCN1C(=O)c1cccc(-c2cccc(-c3nc4ccc(C(F)(F)F)cc4[nH]3)c2)c1` (configuration not stated), the IC50 is reported as 280 nM.
`Cc1ccc(NC(=O)Nc2ccc(Cl)c(C(F)(F)F)c2)cc1-c1ccc(C(=O)NCCN2CCOCC2)cc1` was tested, and the IC50 was 810 nM.
For `O=C(Nc1ccc2c(c1)CN(Cc1ccc(N3CCCC3)o1)CCC2)c1cncs1`, the IC50 was 1570 nM.
